{"source": "paper PMC3764824", "about": "“Base-modified Donor Analogues Reveal Novel Dynamic Features of a Glycosyltransferase” (The Journal of Biological Chemistry, 2013)", "molecules": {"B1": {"name": "AAGlyB (GTA-L266G/G268A) (Homo sapiens; G268A/L266G) (protein)", "chain": "VSLPRMVYPQPKVLTPCRKDVLVVTPWLAPIVWEGTFNIDILNEQFRLQNTTIGLTVFAIKKYVAFLKLFLETAEKHFMVGHRVHYYVFTDQPAAVPRVTLGTGRQLSVLEVRAYKRWQDVSMRRMEMISDFCERRFLSEVDYLVCVDVDMEFRDHVGVEILTPLFGTLHPGFYGSSREAFTYERRPQSQAYIPKDEGDFYYGGAFFGGSVQEVQRLTRACHQAMMVDQANGIEAVWHDESHLNKYLLRHKPTKVLSPEYLWDQQLLGWPAVLRKLRFTAVPKNHQAVRNP", "notes": "soluble catalytic domain, N-terminally truncated (forward primer MIN2 encodes …; C-terminus ...NP at residue 354), made in E. coli BL21-gold from pCWdeltalac; SP-Sepharose and UDP-hexanolamine-Sepharose; residues 58-354 stated ordered in UDP-HAA crystal"}}, "key": {"AAGlyB (GTA-L266G/G268A) [1]": {"target": "T1, AAGlyB (GTA-L266G/G268A) (Homo sapiens, UniProt P16442, G268A/L266G)", "T1 construct": "gene ABO; soluble catalytic domain, N-terminally truncated (forward primer MIN2 encodes MVSLPRMVYPQP; C-terminus ...NP at residue 354), made in E. coli BL21-gold from pCWdeltalac; SP-Sepharose and UDP-hexanolamine-Sepharose; residues 58-354 stated ordered in UDP-HAA crystal", "T1 sequence (P16442 64-354 L266G/G268A)": "B1 chain", "assay": "radiochemical Sep-Pak assay, Dixon plot", "type": "biochemical", "conditions": "read-out: 2", "excerpt": "radiochemical Sep-Pak assay, Dixon plot on AAGlyB (GTA-L266G/G268A)"}, "AAGlyB (GTA-L266G/G268A) [2]": {"target": "T2, AAGlyB (GTA-L266G/G268A) (Homo sapiens, UniProt P16442, L266G/G268A)", "T2 construct": "gene ABO; soluble catalytic domain, N-terminally truncated (forward primer MIN2 encodes MVSLPRMVYPQP; C-terminus ...NP at residue 354), made in E. coli BL21-gold from pCWdeltalac; SP-Sepharose and UDP-hexanolamine-Sepharose; residues 58-354 stated ordered in UDP-HAA crystal", "T2 sequence (P16442 64-354 L266G/G268A)": "B1 chain", "assay": "capillary electrophoresis with LIF detection", "type": "biochemical", "conditions": "labelled compound; co-substrate compound 2 (33.3 μM), CE assay, 20 mM MnCl2, MOPS pH 7.0, 37 °C", "excerpt": "(§1) capillary electrophoresis with LIF detection on AAGlyB (GTA-L266G/G268A)"}, "AAGlyB (GTA-L266G/G268A) [3]": {"target": "T2, AAGlyB (GTA-L266G/G268A)", "assay": "X-ray crystallography ([…] Å)", "type": "binding", "conditions": "ternary complex with HAA; UDP carried over from purification"}, "[4]": {"substrate": "O=c1[nH]c(=O)n([C@@H]2O[C@H](COP(=O)(O)OP(=O)(O)O[C@H]3O[C@H](CO)[C@H](O)[C@H](O)[C@H]3O)[C@@H](O)[C@H]2O)cc1-c1ccccc1", "assay": "capillary electrophoresis with LIF detection", "type": "biochemical, Homo sapiens", "conditions": "50 μM tetramethylrhodamine-labeled HAA, 20 mM MnCl2, 50 mM MOPS pH 7.0, 37 °C", "excerpt": "as §1"}}, "data": [{"molecule": "O=c1[nH]c(=O)n([C@@H]2O[C@H](COP(=O)(O)OP(=O)(O)O[C@H]3O[C@H](CO)[C@H](O)[C@H](O)[C@H]3O)[C@@H](O)[C@H]2O)cc1-c1ccccc1", "note": "[compound 2, UDP-Gal derivative 2]", "values": [{"measurement": "Ki", "setting": "AAGlyB (GTA-L266G/G268A) [1]", "result": 3, "unit": "µM"}]}, {"molecule": "α-Fucp-(1→2)-β-Galp-O-(CH2)8CONH(CH2)2NH-CO-tetramethylrhodamine", "values": [{"measurement": "Km", "setting": "AAGlyB (GTA-L266G/G268A) [2]", "result": "56 ± 3", "unit": "µM"}]}, {"molecule": "O=c1ccn([C@@H]2O[C@H](COP(=O)(O)OP(=O)(O)O)[C@@H](O)[C@H]2O)c(=O)[nH]1", "note": "[UDP]", "values": [{"measurement": "X-ray crystallography (1.8 Å)", "setting": "AAGlyB (GTA-L266G/G268A) [3]", "result": "The AAGlyB-UDP-HAA structure shows very well defined electron density"}]}, {"molecule": "B1", "values": [{"measurement": "Km", "setting": "[4]", "result": "6.5 ± 0.5", "unit": "µM"}, {"measurement": "kcat", "setting": "[4]", "result": "0.006 ± 0.0008", "unit": "s⁻¹"}]}]}
